Values of other authors, collected in patent US20090156634A1, “Tropane alkaloids and trigonelline combinations and methods for administering the same” (priority 2007, published 2009).
Structures can show the parent of a compound that is named as a salt.

Assays:
diaphragm = settings: rats, low-dose
[1] = system: rat cultured sensory neurons; settings: attributed to inhibition of potassium channels
central nervous system = settings: orally administered to rats
dendrites and axons = settings: mice models of Alzheimer's disease

Row | SMILES | effect on diaphragm fatigue (diaphragm) | excitability of the rat dorsal gangliae [1] | central nervous system effect (central nervous system) | effect on dendrites and axons (dendrites and axons)
1 | NCCc1ccc(O)c(O)c1 [dopamine] | can prevent and/or reverse diaphragm fatigue | – | – | –
2 | C[n+]1cccc(C(=O)[O-])c1 [trigonelline, 3-carboxy-1-methyl-pyridinum inner salt] | – | increases the excitability | central nervous system stimulating effects | induce regenerative effects in dendrites and axons
